The values below are quoted from earlier work in US20110105330A1, “C[…]” (priority 2009, published 2011).

For this data set the following is noted: ph 1.9, 20° C.

Consider `O=C(O)CNCP(=O)(O)O` [Glyphosate, n-(phosphonomethyl) glycine], for which the solubility in water entry was “approximately 10.5 g/L”.
